Data set [1] deals with Salmonella Typhimurium ATCC 13311. The class given is cell-based, Salmonella enterica serovar Typhimurium. The text has this: (§1) All tests were done in triplicate.
For data set [2], the system named is Acinetobactero baumanii MT strain. The data set is classed as cell-based. The note with it: for MIC: 24 h.
Text: as §1

Data set [3] relates to Bacillus cereus ATCC 11778. The data set is classed as cell-based.
Text: as §1

In data set [4] the test system is Listeria monocytogenes 10403s. The data set is classed as cell-based. The following applies: for MIC: 24 h.
Text: as §1

The subject of data set [5] is Pseudomonas aeruginosa ATCC 27853. The data set is classed as cell-based.
Text: as §1

Data set [6] relates to Shigella sonnei ATCC11060. The data set is classed as cell-based. The following applies: triplicate; for MIC: broth microdilution in MHB, 37 °C, 24 h; for MBC: colony count on TSA from non-turbid MIC wells.
Text: as §1
(In general: Dilution methods test growth across graded concentrations, often in twofold steps.)

The subject of data set [7] is Staphylococcus epidermidis ATCC 12228. The class given is cell-based. The following applies: for MBC: ATCC 12228, 18 h.
Text: as §1

Data set [8] relates to all Gram-negative strains. Nature of the data set: Geometric mean of MICs and therapeutic index, Gram-negative strains. The data set is classed as cell-based. The note with it: 4 Gram-negative strains.
Text: as §1

For data set [9], the system named is all Gram-positive strains. Nature of the data set: Geometric mean of MICs and therapeutic index, Gram-positive strains. The class given is cell-based. The following applies: 4 Gram-positive strains.
Text: as §1

In data set [10] the test system is L929 mouse fibroblast cells. In words: In vitro cytotoxicity, MTT assay. The class given is cell-based. The following applies: 0.98–250 µg/ml, 24 h. The method, then: The cytotoxicity of A11 was evaluated by the 3-(4,5 dimethylthiazol-2-yl)-2,5-diphenyltetrazolium bromide (MTT) assay. L929 mouse fibroblast cells were cultured in Dulbecco's Modified Eagle Medium (DMEM) supplemented with 1% (v/v) of 100 IU/ml penicillin/streptomycin and 10% (v/v) fetal bovine serum (FBS). The cells were maintained in an air atmosphere containing the 5% CO2 under high humidity at 37 °C. L929 cell lines were seeded into a sterile 96-well plate (1 × 10^4 cells/well) then incubated overnight and treated with different concentrations of A11 (0.98–250 µg/ml) for 24 h. Media were removed, and cultured cells were incubated with 100 µl of MTT solution (4 mg/ml) for 4 h at 37 °C. After removal of MTT solution, the formed formazan was dissolved in 100 µl DMSO. Absorbance was measured by microplate reader at 570 nm; untreated cells served as negative control and melittin-treated cells as a positive control. Cell viability was determined following this equation: Cell viability%=ODTreated/ODControl×100
On the technique in general: Formazan colour is commonly taken as a measure of viable cells.

The test system of data set [11] is Staphylococcus aureus ATCC 25923. The class given is cell-based. The following applies: for MBC: ATCC 25923, 18 h; for MIC: ATCC 25923, 24 h.
Text: as §1

The test system of data set [12] is panel of human pathogenic bacterial strains. The note with it: summary over all tested strains of Table 1.
Description: Four Gram-negative bacteria including Salmonella enterica serovar Typhimurium (S. Typhimurium) ATCC 13311 and 16 drug-resistant S. enterica isolates (S. Typhimurium and monophasic variant 4,5,12:i:-), and four Gram-positive bacteria (Staphylococcus aureus ATCC 25923, Staphylococcus epidermidis ATCC 12228, Bacillus cereus ATCC 11778, and Listeria monocytogenes 10403s) were used as test microorganisms. […] All bacterial strains were cultured in a proper medium at 37 °C for 18 h (Table 1).
The minimum inhibitory concentration (MIC) of each peptide was evaluated by broth microdilution assay according to a modification described by the National Committee for Clinical Laboratory Standards (NCCLS)[22]. Mid-logarithmic phase bacterial cells were adjusted to an OD620 of 0.05 in Mueller–Hinton broth (MHB), a universal medium for antibacterial susceptibility testing[23]. Then, 50 µl of bacterial solution was incubated with 50 µl of two-fold serially diluted peptide (0.98–250 µg/ml in PBS) at 37 °C for 24 h with continuous shaking. […] The minimal bactericidal concentration (MBC) of each peptide was determined using a colony count assay. Fifty microliter aliquots of the mixture from each non-turbid well (no growth) from the MIC experiment was spread on Tryptic soy agar (TSA) and cultured overnight at 37 °C. […]
[13] abbreviates: broth microdilution in MHB, 37 °C, triplicate.
Setting [14] is: colony count on TSA from non-turbid MIC wells, triplicate.
Where [15] appears, read: broth microdilution in MHB, 37 °C, 24 h, triplicate.

Values after ≈ are worked out from the molar mass of the structure shown. Where two headings read alike, the source gives them in different places. Where no end group is shown, it is not given here.

On to `CC[C@H](C)[C@H](NC(=O)CN)C(=O)NCC(=O)N[C@@H](C)C(=O)N[C@H](C(=O)N[C@@H](CC(C)C)C(=O)N[C@@H](CCCCN)C(=O)N[C@H](C(=O)N[C@@H](CC(C)C)C(=O)N[C@H](C(=O)N[C@H](C(=O)NCC(=O)N[C@@H](CC(C)C)C(=O)N1CCC[C@H]1C(=O)N[C@@H](C)C(=O)N[C@@H](CC(C)C)C(=O)N[C@H](C(=O)N[C@@H](CO)C(=O)N[C@@H](Cc1c[nH]c2ccccc12)C(=O)N[C@H](C(=O)N[C@@H](CCCCN)C(=O)N[C@@H](CCCNC(=N)N)C(=O)N[C@@H](CCCCN)C(=O)N[C@@H](CCCNC(=N)N)C(=O)N[C@@H](CCC(N)=O)C(=O)N[C@@H](CCC(N)=O)C(N)=O)[C@@H](C)CC)[C@@H](C)CC)[C@@H](C)O)[C@@H](C)O)C(C)C)C(C)C` [Melittin, reference compound], for which the MIC in data set [1] (broth microdilution in MHB, 37 °C, 24 h, visible inspection, triplicate) is 3.91 (3.91) µg/ml; in [2] (setting [13]), 7.81 (7.81) µg/ml; in data set [3] (setting [15]) it was 3.91 µg/mL (≈ 1.37 µM); in data set [4] (setting [13]) it was 3.91 (3.91) µg/ml; in data set [5] (setting [15]), 15.63 (15.63) µg/ml; in data set [6], 3.91 µg/mL (≈ 1.37 µM). In addition, the MIC in [7] (setting [15]) is listed as 3.91 (3.91) µg/ml. Further, the MBC in data set [1] (colony count on TSA from non-turbid MIC wells, overnight 37 °C, triplicate) is 3.91 (3.91) µg/ml; in data set [2] (setting [14]), 7.81 (7.81) µg/ml; in data set [3] (setting [14]), 7.81 µg/mL (≈ 2.74 µM); in data set [4] (setting [14]), 3.91 (3.91) µg/ml; in data set [5] (setting [14]) it was 15.63 (15.63) µg/ml; in data set [6], 7.81 µg/mL (≈ 2.74 µM). In data set [8], the “GM (Gr.- strains), geometric mean of MIC values from all Gram-negative strains” value turned out to be 6.8 µg/mL. Moreover, in data set [9], the “GM (Gr. + strains), geometric mean of MIC values from all Gram-positive strains” value amounted to 3.91 µg/mL. Further, the “cytotoxicity toward L929 cells (cell viability, MTT)” value in data set [10] is on record as “strongly cytotoxic”.
For the compound “GNPKVAHCASQIGRSTAWGAVSGA-NH2 [A0, acidocin J1132β, reference compound]”, the MBC was > 250 (> 250) µg/ml in [1] (ATCC 13311, 18 h); > 250 (> 250) µg/ml in data set [2] (18 h); > 250 (> 250) µg/ml in [3] (ATCC 11778, 18 h); > 250 (> 250) µg/ml in data set [4] (10403s, 18 h); > 250 (> 250) µg/ml in data set [5] (ATCC 27853, 18 h); > 250 (> 250) µg/ml in data set [11]. Besides, the MBC in data set [7] is listed as > 250 (> 250) µg/ml. Also, the MIC is reported as > 250 (> 250) µg/ml in [1] (ATCC 13311, 24 h); > 250 (> 250) µg/ml in data set [2]; > 250 (> 250) µg/ml in data set [3] (ATCC 11778, 24 h); > 250 (> 250) µg/ml in data set [4] (10403s); > 250 (> 250) µg/ml in [5] (ATCC 27853, 24 h); > 250 (> 250) µg/ml in data set [11]. In addition, the MIC in data set [7] (ATCC 12228, 24 h) is > 250 (> 250) µg/ml. In data set [12], the “MIC over the tested bacteria” value was greater than 250 µg/mL.
With GVKKVAHKVVKIGRKVAW-NH2 [A6], the MBC in data set [1] (ATCC 13311, 18 h) is 62.5 (62.5) µg/ml; in data set [2] (18 h), 31.25 (31.25) µg/ml; in [3] (ATCC 11778, 18 h), > 250 (> 250) µg/ml; in data set [4] (10403s, 18 h), 250 (> 250) µg/ml; in data set [5] (ATCC 27853, 18 h) it was 250 µg/mL; in data set [6], 125 µg/mL. The MBC in data set [11] and in [7] was > 250 (> 250) µg/ml throughout. Also, the MIC in data set [1] (ATCC 13311, 24 h) is 62.5 (62.5) µg/ml; in data set [2], 31.25 (31.25) µg/ml; in data set [3] (ATCC 11778, 24 h), > 250 (> 250) µg/ml; in data set [4] (10403s) it was 250 (> 250) µg/ml; in [5] (ATCC 27853, 24 h), 125 µg/mL; in data set [6], 62.5 µg/mL. In addition, the MIC was > 250 (> 250) µg/ml in data set [11] and > 250 (> 250) µg/ml in [7] (ATCC 12228, 24 h).
With GVKKVAHKVVKIGRKVAWGAVSGV-NH2 [A4], the MBC in data set [1] (ATCC 13311, 18 h) was 31.25 (31.25) µg/ml; in data set [2] (18 h), 31.25 µg/mL; in data set [3] (ATCC 11778, 18 h), > 250 (> 250) µg/ml; in data set [4] (10403s, 18 h) it was 250 (> 250) µg/ml; in data set [5] (ATCC 27853, 18 h) it was 250 (250) µg/ml; in data set [11], > 250 (> 250) µg/ml. Moreover, the MBC in [7] is 250 (250) µg/ml. Besides, the MIC in data set [1] (ATCC 13311, 24 h) is 31.25 (31.25) µg/ml; in data set [2], 15.63 µg/mL; in data set [3] (ATCC 11778, 24 h), > 250 (> 250) µg/ml; in data set [4] (10403s) it was 250 (> 250) µg/ml; in data set [5] (ATCC 27853, 24 h), 250 (250) µg/ml; in data set [11], > 250 (> 250) µg/ml. The MIC in [7] (ATCC 12228, 24 h) is reported as 250 (250) µg/ml.
Consider GVKKVARKVVKIGRKVAR-NH2 [A9], for which the MBC in [1] (ATCC 13311, 18 h) is 62.5 (62.5) µg/ml; in data set [2] (18 h) it was 125 µg/mL; in data set [3] (ATCC 11778, 18 h), > 250 (> 250) µg/ml; in data set [4] (10403s, 18 h), 250 (> 250) µg/ml; in data set [5] (ATCC 27853, 18 h) it was 250 (250) µg/ml; in [11] it was > 250 (> 250) µg/ml. Further, the MBC in [7] was greater than 250 µg/mL. The MIC is 62.5 (62.5) µg/ml in data set [1] (ATCC 13311, 24 h); > 250 (> 250) µg/ml in [3] (ATCC 11778, 24 h); 250 (> 250) µg/ml in data set [4] (10403s); 250 (250) µg/ml in [5] (ATCC 27853, 24 h); > 250 (> 250) µg/ml in [11]; 62.5 µg/mL in data set [7] (ATCC 12228, 24 h).
